Test results published in patent US20250073209A1, “COVALENT TARGETING OF RhoA FOR CANCER THERAPY” (The University of Hong Kong, priority 2023, published 2025).

What was measured:
[1] = biological target: RhoA (Homo sapiens, UniProt P61586); test: Fluorescence-based assay of Dbs-mediated GTP binding onto RhoA; type: biochemical; settings: increasing concentrations of CL16
[2] = test system: HT29 cells; test: Wound healing assay; type: cell-based, human
Procedure: For wound healing assay, HT29 cells were seeded in 90% confluency, a wound was scratched using a P-20 tip the next day. Cell debris was washed with PBS then aspirated. Then, complete DMEM medium with CL16 or Rhosin with corresponding concentration was added to the cells. Wound closure was recorded every 24 hours under light microscope with 10× objective and measurement of wound area was made by ImageJ.
As discussed above, overexpression/hyperactivity of RhoA associated with poor prognosis and aggressive behaviors of CRCs (FIG. 8A). Thus, the anti-cancer and anti-metastatic properties of CL16 in CRCs were explored. First, it was confirmed that genetic knockdown of RhoA by siRNA slowed down colony formation and migration of CRCs by using staining (data not shown) and wound healing assay (FIG. 4A). MTT assay was used to determine cell viability of CRCs and normal colon fibroblast CCD-18Co cells treated with CL16 for 48 h (n=3 different biological replicates/group). A much lower expression level of RhoA in normal colon fibroblast CCD-18Co cells was also determined, as compared to CRCs, by western blotting (data not shown). […] HT29 cells were transfected with siRNA (5 μM) using Dharmafect1 for 48 hours, and protein expressions were then investigated by immunoblotting.

[3] = test system: HT29 cells; test: Transwell (Matrigel) invasion assay; type: cell-based, human; settings: HT29, 24 h
[4] = test system: SW620 spheroid; test: Spheroid formation assay, SW620; type: cell-based, human
Procedure: FIGS. 5A-5B are graphs showing the anticancer effects of CL16 in HT29 (FIG. 5A) and SW620 (FIG. 5B) spheroids. HT29 spheroid or SW620 spheroid were treated with CL16 at the indicated concentrations for 10 days. The spheroids were then imaged by microscope using 10× objective and the size was determined by ImageJ.
5,000 cells of HT29 and SW620 cells were inoculated in serum-free DMEM/F12 medium with 20 ng/mL […] growth factor (EGF) in 96-well round-bottom low-affinity plate (Nunc). Medium was supplemented with CL16 or Rhosin when spheroid has formed an opaque core. Morphology was recorded under a light microscope with 10× objective.
To further investigate the anticancer effects of CL16, HT29 and SW620 cells were inoculated as spheroids in low-affinity plate with 20 ng/mL EGF, and incubated with different concentrations of CL16 or Rhosin.

[5] = test system: HCT116, HT29 and SW620 cells; test: Immunoblotting of cell cycle checkpoint proteins; type: cell-based, human; settings: HCT116, HT29 and SW620, 24 h
Procedure: Anti-RhoA (#2117), anti-GAPDH (#2118), anti-phosphoMLC (#3671), anti-MLC (#3672), anti-FLAG (#8146), anti-GFP (#2956), and anti-GST (#2624) were purchased from Cell Signaling Technology. Cells were washed with PBS and then harvested using cell lysis buffer (1% Triton X100, 10 mM beta glycerol phosphate, 10 mM sodium pyrophosphate, 40 mM HEPES, 4 mM EDTA, pH7.4) with 4% protease/phosphatase inhibitor cocktail (Pierce). Protein samples were quantified using BCA assays (Pierce), normalized and then boiled with 4× Laemmli sampling buffer in 95° C. for 5 mins. Samples were resolved in 10% polyacrylamide gel (Biorad) and then transferred onto PVDF membrane (Biorad) and blocked with blocking buffer (5% bovine serum albumin (BSA) in Tris-buffered saline with 0.1% Tween 20 (TBST)) for 1 h. Membrane was washed in TBST, followed by incubation with corresponding primary antibodies (diluted 1:1000 in 5% BSA/milk in TBST with 1% NaN3) overnight at 4° C. […]
The effects of CL16 treatment on cell cycle checkpoint proteins were investigated with immunoblotting of the cell cycle checkpoint proteins in SW620 and HT29 cells after CL16 treatment for 24 h. […] Caspase- 3/7 Green Detection Reagent was used to study apoptosis in HCT116 cells treated with Rhosin by confocal fluorescence imaging. […]

[6] = biological target: T1, RhoA WT (Homo sapiens, UniProt P61586); test: RhoA-GTP rhotekin pull-down in HT29 cells expressing RhoA WT; type: cell-based; settings: 24 h
T1 construct: endogenous in cells; host or cells: HT29
T1 sequence (P61586 whole entry): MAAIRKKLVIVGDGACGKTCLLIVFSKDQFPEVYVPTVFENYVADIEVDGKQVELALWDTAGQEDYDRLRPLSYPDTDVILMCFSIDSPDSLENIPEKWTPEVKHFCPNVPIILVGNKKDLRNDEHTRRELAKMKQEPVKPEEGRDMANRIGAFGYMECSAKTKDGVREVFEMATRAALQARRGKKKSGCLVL
Procedure: RhoA Pull-Down Activation Assay Biochem Kit (#BK036) was purchased from Cytoskeleton. According to the manufacturer's protocol, total cell lysate (0.5 mg/mL; 300 μL) was added to 7.5 μL of Rhotekin-Rho Binding Domain beads in 0.6 mL tubes. The solution mixture was incubated at 4° C. on an end-to-end rotator for 1 hour. Beads were washed with 500 μL of washing buffer once, then centrifuged at 5000g for 3 min and the supernatant was discarded. RhoA-GTP was then eluted in 2× laemmli buffer and resolved in 10% SDS-PAGE.
The effects of CL16 in HT29 cells expressing RhoA WT protein and HT29 cells with RhoA C16 Å knock-in by CRISPR-Cas9 were investigated, respectively, to validate the molecular mechanism of RhoA inhibition and anti-cancer properties from CL16. […] HT29 cells expressing RhoA WT or C16 Å protein were incubated with solvent vehicle, CL16 or Rhosin in complete medium for 24 h. The cells were then washed, lysed, subjected to rhotekin pull-down and immunoblotted. […] Wound healing assay on HT29 cells expressing RhoA WT or C16 Å protein were incubated with solvent vehicle, CL16 or Rhosin in complete medium for 48 h (FIGS. 19A and 19B).

Sequence of RhoA (P61586 whole entry): as above

O=C(CCl)N1N=C(c2cc3ccccc3o2)CC1c1ccco1 (centres unmarked) [CL16]
kinetics of Dbs-mediated GTP binding onto RhoA [1]: significant decrease in the kinetics
cell migration [2]: good efficacy in reducing HT29 cell migration and invasion
cell invasion [3]: good efficacy in reducing HT29 cell migration and invasion
growth of SW620 spheroids ([4]; 20 ng/mL EGF, low-affinity plate): significant inhibitions in the growth
IC50 ([4]; Homo sapiens, SW-620, 240 h, 10 days, read-out: cytotoxic IC50 in SW620 spheroids): 4.1 µM
cyclin A2 and cyclin B1 levels [5]: no significant changes
p21 and p27 protein levels [5]: increase in p21 and p27 protein levels
active RhoA-GTP level [6]: significant decrease in the active RhoA-GTP level
